# Laboratory results: patent US20030194445A1, “Compositions and methods of use of peptides in combination with biocides and/or germicides” (priority 2001, published 2003)
# Where a name gives a salt, the structure may show the parent alone. Read-outs that look alike come from different tables or passages of the source. *: point of attachment. Octanoyl = CCCCCCCC(=O)*
# Experiments:
# [1] = system: P. aeruginosa; experiment: MIC of biocide actives and formulations, microtiter growth assay
# [2] = system: K. pneumoniae; experiment: as above
# [3] = system: microorganisms; experiment: Triclosan plus sub-toxic levels of peptide on microbial growth; assay type: cell-based
# Experimental: Effect of combinations of triclosan and sub-toxic levels of peptide on microbial growth is assessed. […] Thus, the potential use rate of triclosan as an antimicrobial is shown to be reduced.
# [4] = system: S. cerevisiae ATCC 9763; experiment: microbe, parasite or virus in culture; conditions: Saccharomyces cerevisiae, ATCC9763, read-out: Triclosan MIC
# [5] = system: K. pneumoniae ATCC 27736; experiment: microbe, parasite or virus in culture; conditions: Klebsiella pneumoniae, ATCC27736, read-out: Triclosan MIC
# [6] = system: all organisms tested except P. aeruginosa; experiment: Triclosan plus sub-biocidal peptide, summary over organisms; assay type: cell-based
# Excerpt: Thus, the potential use rate of triclosan as an antimicrobial is reduced.
# [7] = system: S. aureus ATCC 33591 (MRSA)
# [8] = system: S. cerevisiae ATCC 9763
# [9] = system: P. aeruginosa ATCC 10145
# [10] = system: P. aeruginosa ATCC 10145; experiment: microbe, parasite or virus in culture; conditions: Pseudomonas aeruginosa, ATCC10145, read-out: Triclosan MIC
# [11] = system: C. albicans ATCC 10231
# [12] = system: E. coli ATCC 25922
# [13] = system: E. coli ATCC 25922; experiment: microbe, parasite or virus in culture; conditions: Escherichia coli, ATCC25922, read-out: Triclosan MIC
# [14] = system: S. aureus ATCC 33591 (MRSA); experiment: microbe, parasite or virus in culture; conditions: Staphylococcus aureus, read-out: Triclosan MIC
# [15] = system: C. albicans ATCC 10231; experiment: microbe, parasite or virus in culture; conditions: Candida albicans, ATCC10231, read-out: Triclosan MIC
# [16] = system: K. pneumoniae ATCC 27736
# [17] = system: microbes such as Salmonella typhimurium and Clostridium botulinum; assay type: cell-based; conditions: food preservative use
# [18] = system: E. coli; experiment: Peptide-containing textile fiber, MIC; assay type: cell-based, Escherichia coli; conditions: E. coli in LB media
# Excerpt: Peptide compositions comprising peptides of the present invention and at least one biocide or germicide may be applied by coating or spinning effective amounts of peptide onto or into the desired polymer. The peptides may be prepared in an aqueous solution to use as a coating solution or combined with a polymer. […] A peptide and polymer solution or mixture may be made and undergo casting or formation to the desired shaped article, fiber or film. The shaped article, fiber or film may then be quenched in water or methanol, allowed to air dry or dry under an appropriate atmosphere to prevent oxidative reactions.
# The resulting solution may be placed into a microscale spinning apparatus and fiber is formed while wet with methanol. The antimicrobial activity of the peptides may be tested in tubes containing LB media innoculated with the peptide-containing fiber and E. coli growing at log phase (1×10^6 to 1×10^7 cells/ml). Aliquots can be taken from the culture tube at periodic intervals and absorbance readings at 600 nm (uv/vis) can be measured in a microcuvette.
# [19] = P. aeruginosa, growth inhibited by >90%
# [20] = K. pneumoniae, growth inhibited by >90%
# [21] = triclosan MIC with octanoyl-RR-NH-octyl at 0.5 ppm
# [22] = triclosan MIC with octanoyl-R-NH-octyl at 4 ppm
compound,measurement,setting,value
"n-alkyl (C12-40%, C14-50%, C16-10%) dimethylbenzylammonium chloride [Maquat]",MIC,[1]; [19],7.8 µg/mL
same,MIC,[2]; [20],0.6 µg/mL
"O=CCCCC=O [Aqucar, glutaraldehyde]",MIC,[1]; Pseudomonas aeruginosa,500 µg/mL
same,MIC,[2]; Klebsiella pneumoniae,250 µg/mL
"Oc1cc(Cl)ccc1Oc1ccc(Cl)cc1Cl [Triclosan, 2,4,4′-trichloro-2′-hydroxydiphenylether]",inhibitory effect of triclosan with a peptide of the invention in sub-toxic amounts,[3],substantially increase
same,MIC,[4],4 µg/mL
same,MIC,[5],0.061 µg/mL
same,inhibitory effect of triclosan on addition of sub-biocidal amounts of peptide,[6],substantially increased
same,Triclosan plus constant [peptide],[7]; [21],0.002 (0.5 ppm) μg/ml
same,Triclosan plus constant [peptide],[8]; triclosan MIC with octanoyl-R-NH-octyl at 2 ppm,2 (2 ppm) μg/ml
same,Triclosan plus constant [peptide],[9]; [22],>250 (4 ppm) μg/ml
same,MIC,[10],> 250 µg/mL
same,Triclosan plus constant [peptide],[11]; triclosan MIC with octanoyl-RR-NH-octyl at 2 ppm,4 (2 ppm) μg/ml
same,Triclosan plus constant [peptide],[11]; triclosan MIC with octanoyl-RR-NH-octyl at 4 ppm,2 (4 ppm) μg/ml
same,Triclosan plus constant [peptide],[12]; [22],<0.00003 (4 ppm) μg/ml
same,MIC,[13],0.002 µg/mL
same,MIC,[14],0.015 µg/mL
same,MIC,[15],8 µg/mL
same,Triclosan plus constant [peptide],[16]; [21],0.031 (0.5 ppm) μg/ml
same,Triclosan plus constant [peptide],[16]; triclosan MIC with octanoyl-RR-NH-octyl at 1 ppm,0.00003 (1 ppm) μg/ml
"CCCCCCCCCCCCNC(=N)N [DGH, dodecylguanidine hydrochloride]",MIC,[1]; Pseudomonas aeruginosa,10 µg/mL
same,MIC,[2]; Klebsiella pneumoniae,2.5 µg/mL
"N#CC(Br)(Br)C(N)=O [compound 7287, 2,2-dibromo-3-nitrilo propionamide]",MIC,[1]; [19],40.0 µg/mL
same,MIC,[2]; [20],40.0 µg/mL
Octanoyl-Arg-Cys-NH-octyl,MIC,[17],≦15 μg/ml
Decanoyl-Arg-NH-decyl,MIC,[17],≦8 μg/ml
same,MIC,[18],≦15 μg/ml
Acetyl-Arg-Trp-Arg-Trp-NH2 (Ac-RWRW-NH2),MIC,[17],≦31 μg/ml
same,MIC,[18],≦31 μg/ml
"N#CSCSC#N [MBT, methylene bis(thiocyanate)]",MIC,[1]; [19],0.6 µg/mL
same,MIC,[2]; [20],0.6 µg/mL
"O=[N+]([O-])C(Br)(CO)CO [Myacide, 2-bromo-2-nitropropane-1,3-diol]",MIC,[1]; Pseudomonas aeruginosa,1.3 µg/mL
same,MIC,[2]; Klebsiella pneumoniae,10 µg/mL
Octanoyl-Arg-Arg-Arg-NH-octyl,MIC,[18],≦8 μg/ml
Octanoyl-Arg-Ala-NH-octyl,MIC,[17],≦15 μg/ml
Octanoyl-Arg-Trp-Phe-NH2,MIC,[18],≦15 μg/ml
"CCCCCCCCNC(=O)[C@H](CCCNC(=N)N)NC(=O)CCCCCCC [octanoyl-R-NH-octyl, octanoyl-R—NH-octyl]",Peptide MIC,"[8]; ATCC 9763, 19 h",8 µg/mL
same,Peptide MIC,"[9]; ATCC 10145, 19 h",8 µg/mL
same,Peptide MIC,"[12]; ATCC 25922, 19 h",8 µg/mL
Octanoyl-Lys-Arg-NH-octyl,MIC,[17],≦4 μg/ml
Nonanoyl-Arg-Arg-NH-nonyl,MIC,[18],≦2 μg/ml
Octanoyl-Arg-Trp-NH2,MIC,[17],≦15 μg/ml
same,MIC,[18],≦15 μg/ml
"CCCCCCCCNC(=O)[C@H](CCCNC(=N)N)NC(=O)[C@H](CCCNC(=N)N)NC(=O)CCCCCCC [octanoyl-RR-NH-octyl, octanoyl-RR—NH-octyl]",Peptide MIC,"[7]; ATCC 33591, 19 h",2 µg/mL
same,Peptide MIC,"[11]; ATCC 10231, 19 h",8 µg/mL
same,Peptide MIC,"[16]; ATCC 27736, 19 h",4 µg/mL
Octanoyl-Arg-Phe-Phe-Arg-NH-octyl (Octanoyl-RFFR-{NH‑octyl}),MIC,[18],≦4 μg/ml
Nonanoyl-Arg-NH-nonyl,MIC,[17],≦4 μg/ml
